Test results as given in BindingDB's records for doi:10.1124/jpet.102.035899 (University of Miami, 2002).
Where “and” joins values, the source holds several entries; their conditions need not be identical. Equal entries are not always repeated.

How the values were obtained:
[1] = biological target: neuronal acetylcholine receptor subunit alpha-2 (Xenopus tropicalis, UniProt A0A6I8T284)
[2] = biological target: cholinergic receptor, nicotinic, alpha 1 (Muscle) isoform X1 (Xenopus sp., UniProt F6RLM5)
cholinergic receptor, nicotinic, alpha 1 (Muscle) isoform X1, sequence (F6RLM5 whole entry, canonical isoform): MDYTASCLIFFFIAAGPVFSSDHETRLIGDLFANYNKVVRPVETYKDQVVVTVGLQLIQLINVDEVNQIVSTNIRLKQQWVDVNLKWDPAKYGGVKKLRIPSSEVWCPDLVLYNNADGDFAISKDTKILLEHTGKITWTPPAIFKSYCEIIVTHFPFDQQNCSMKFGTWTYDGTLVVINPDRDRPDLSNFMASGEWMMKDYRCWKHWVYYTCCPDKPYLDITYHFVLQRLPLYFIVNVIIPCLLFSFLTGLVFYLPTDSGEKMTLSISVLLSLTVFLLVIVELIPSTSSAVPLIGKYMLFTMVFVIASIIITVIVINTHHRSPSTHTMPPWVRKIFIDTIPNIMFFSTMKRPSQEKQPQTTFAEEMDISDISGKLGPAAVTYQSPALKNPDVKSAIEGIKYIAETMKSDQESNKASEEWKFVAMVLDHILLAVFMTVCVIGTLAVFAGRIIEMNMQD

[3] = biological target: neuronal acetylcholine receptor subunit alpha-4 (Xenopus sp., UniProt A9JRM3)
neuronal acetylcholine receptor subunit alpha-4, sequence (A9JRM3 whole entry): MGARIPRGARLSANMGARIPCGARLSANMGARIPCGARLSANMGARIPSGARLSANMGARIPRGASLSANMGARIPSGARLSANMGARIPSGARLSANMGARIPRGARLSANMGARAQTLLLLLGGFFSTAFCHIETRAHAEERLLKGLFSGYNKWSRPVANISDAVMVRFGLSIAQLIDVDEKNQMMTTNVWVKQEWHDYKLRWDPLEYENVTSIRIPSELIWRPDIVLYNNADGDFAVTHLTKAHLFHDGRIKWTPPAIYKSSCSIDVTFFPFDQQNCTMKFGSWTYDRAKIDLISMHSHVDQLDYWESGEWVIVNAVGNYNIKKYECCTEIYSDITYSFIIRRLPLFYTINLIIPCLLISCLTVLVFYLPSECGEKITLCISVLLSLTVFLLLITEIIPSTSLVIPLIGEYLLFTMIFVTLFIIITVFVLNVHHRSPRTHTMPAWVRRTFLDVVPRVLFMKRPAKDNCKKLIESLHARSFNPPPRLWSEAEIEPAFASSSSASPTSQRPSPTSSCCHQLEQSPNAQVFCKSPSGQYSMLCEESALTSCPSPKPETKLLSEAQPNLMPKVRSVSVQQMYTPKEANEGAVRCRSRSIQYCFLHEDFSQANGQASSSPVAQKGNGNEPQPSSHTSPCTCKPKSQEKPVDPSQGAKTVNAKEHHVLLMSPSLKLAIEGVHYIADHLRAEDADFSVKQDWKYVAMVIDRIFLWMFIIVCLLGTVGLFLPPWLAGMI

[4] = biological target: Cholinergic receptor nicotinic alpha 5 subunit (Xenopus sp., UniProt F7ELS1)
Cholinergic receptor nicotinic alpha 5 subunit, sequence (F7ELS1 whole entry): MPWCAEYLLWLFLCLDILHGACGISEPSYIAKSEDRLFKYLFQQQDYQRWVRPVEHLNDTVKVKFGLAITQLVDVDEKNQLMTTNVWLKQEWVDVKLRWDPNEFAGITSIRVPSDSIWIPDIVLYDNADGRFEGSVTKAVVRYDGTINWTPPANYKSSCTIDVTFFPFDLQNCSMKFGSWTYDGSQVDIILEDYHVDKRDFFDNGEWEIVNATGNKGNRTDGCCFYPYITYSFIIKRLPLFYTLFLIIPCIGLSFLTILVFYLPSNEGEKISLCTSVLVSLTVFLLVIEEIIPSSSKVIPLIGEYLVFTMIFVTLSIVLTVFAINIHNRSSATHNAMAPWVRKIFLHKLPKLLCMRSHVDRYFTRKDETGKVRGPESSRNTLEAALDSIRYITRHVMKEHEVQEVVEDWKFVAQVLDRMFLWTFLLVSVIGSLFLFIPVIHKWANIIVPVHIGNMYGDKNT

[5] = biological target: Cholinergic receptor, nicotinic alpha 1 (Xenopus sp., UniProt F6RLA9)
Cholinergic receptor, nicotinic alpha 1, sequence (F6RLA9 whole entry): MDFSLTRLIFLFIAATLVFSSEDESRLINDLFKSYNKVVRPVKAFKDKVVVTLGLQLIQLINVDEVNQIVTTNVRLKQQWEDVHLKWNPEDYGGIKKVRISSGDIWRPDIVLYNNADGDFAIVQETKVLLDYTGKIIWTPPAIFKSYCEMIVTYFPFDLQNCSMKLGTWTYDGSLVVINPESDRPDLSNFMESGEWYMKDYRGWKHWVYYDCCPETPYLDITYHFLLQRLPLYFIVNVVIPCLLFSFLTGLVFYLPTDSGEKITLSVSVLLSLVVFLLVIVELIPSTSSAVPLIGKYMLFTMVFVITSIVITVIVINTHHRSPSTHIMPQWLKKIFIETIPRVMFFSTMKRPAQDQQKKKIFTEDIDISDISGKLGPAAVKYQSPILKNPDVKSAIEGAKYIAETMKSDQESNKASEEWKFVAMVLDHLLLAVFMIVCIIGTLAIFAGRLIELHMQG

neuronal acetylcholine receptor subunit alpha-2, sequence (A0A6I8T284 whole entry, canonical isoform): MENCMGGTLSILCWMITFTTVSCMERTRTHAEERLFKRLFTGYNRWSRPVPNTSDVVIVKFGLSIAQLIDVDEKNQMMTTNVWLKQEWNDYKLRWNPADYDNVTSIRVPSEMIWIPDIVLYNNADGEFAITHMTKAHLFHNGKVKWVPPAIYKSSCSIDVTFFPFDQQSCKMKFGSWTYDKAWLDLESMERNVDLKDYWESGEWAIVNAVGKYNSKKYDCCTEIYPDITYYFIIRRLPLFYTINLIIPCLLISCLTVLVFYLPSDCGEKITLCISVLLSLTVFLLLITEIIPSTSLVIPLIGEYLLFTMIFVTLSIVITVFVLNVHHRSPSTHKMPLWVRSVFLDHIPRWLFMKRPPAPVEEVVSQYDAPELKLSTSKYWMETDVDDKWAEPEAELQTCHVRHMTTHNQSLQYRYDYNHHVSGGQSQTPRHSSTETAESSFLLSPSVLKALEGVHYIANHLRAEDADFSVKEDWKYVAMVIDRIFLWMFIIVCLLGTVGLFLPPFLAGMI

Row | SMILES | Ki [1] | Ki [2] | Ki [3] | Ki [4] | Ki [5]
1 | O=c1ccc([C@H]2CC3CCC2N3)c[nH]1 (some centres not stated) | 100 nM | 100 nM | 100 nM | – | –
2 | Clc1ccc([C@H]2CC3CCC2N3)cn1 (stereo partly drawn) [2-(6-Chloro-pyridin-3-yl)-7-aza-bicyclo[2.2.1]heptane(+/-) epibatidine] | 87 nM | – | – | – | –
3 | Brc1ccc([C@H]2CC3CCC2N3)cn1 (some centres not stated) [NBEP] | 0.013 nM and 0.055 nM | 0.004 nM | 0.01 nM | 0.22 nM | 0.044 nM
4 | CN(C)c1ccc([C@H]2CC3CCC2N3)cn1 (some centres not stated) [NDMNEP] | 100 nM | 100 nM | 100 nM | – | –
5 | c1cncc([C@H]2CC3CCC2N3)c1 (some centres not stated) [NEP] | – | 0.0031 nM | 0.0085 nM | 11 nM | 3.2 nM
6 | Fc1ccc([C@H]2CC3CCC2N3)cn1 (some centres not stated) [NFEP] | – | 0.0038 nM | 0.0092 nM | 2.1 nM | 0.48 nM
7 | Nc1ccc([C@H]2CC3CCC2N3)cn1 (some centres not stated) [NNEP] | – | 0.077 nM | 0.35 nM | 7.2 nM | 4.3 nM
8 | O=S(=O)(Oc1ccc([C@H]2CC3CCC2N3)cn1)C(F)(F)F (some centres not stated) [NTEP] | 10 nM | 100 nM | 100 nM | – | –
